Experimental data as given in patent US20220204449A1, “BIASED AGONISTS OF OPIOID RECEPTORS” (ILDONG PHARMACEUTICAL CO., LTD., priority 2020, published 2022).
pEC50: −log10 of the molar value. Entries after “also recorded” stand apart in the source; their conditions may differ.

What was measured:
Assay type in all cases: cell-based
[1] = biological target: T1, human μ-opioid receptor, OPRM (Homo sapiens, UniProt P35372); experiment: PathHunter β-arrestin 2 assay, OPRM cell line
T1 construct: host or cells: HEK-293 overexpressing β-arrestin2 fused to a β-galactosidase fragment
Description: (§1) Human embryonic kidney 293 (HEK-293) cells which transfected overexpress (3-arrestin2 fused β-galactosidase fragment were purchased from DiscoverX. Human OPRM1 gene (NM 000914.3, encoding human μ-opioid receptor, OPRM) and Human OPRD1 gene (NM 000911.3, encoding human δ-opioid receptor, OPRD) were fused to a pCMV-ProLink plasmid which contains complementary β-galactosidase fragment purchased from DiscoverX. To generate human OPRM1 or OPRD1 expression cell lines, HEK-293 cells were transfected to prepared plasmid and grown in DMEM medium with 10% fetal bovine serum, 150 μg/mL Hygromycin B and 500 μg/mL G418.
(§2) The PathHunter enzyme assay was performed to measure the agonist's capability of β-arrestin 2 pathway activation. When agonists bind to G protein-coupled receptor (GPCR), the receptor pathway is sequentially activated from G protein to β-arrestin 2 recruitment.
(§3) Because […] β-arrestin 2 and C-terminal of GPCR have a fragment of β-galactosidase, recruitment of β-arrestin 2 to GPCR forms the whole β-galactosidase. The functionality of the whole β-galactosidase is detected by chemiluminescence (FlexStation3, Molecular Devices).
(§4) cAMP and β-arrestin assays described above were conducted to decide whether candidate compounds were μ- and/or δ-opioid receptor bias agonists for the G-protein pathway. All assays produced the concentration-response curve, and the curve data was validated by a quality control factor named Z′ factor. Because half-maximal effect concentration (EC50) depends on the population of receptors, the maximal asymptote of the concentration curve was used. Efficacy data of candidates was normalized by comparison to reference agonists DAMGO and SNC80 for OPRM and OPRD.

[2] = biological target: T2, human δ-opioid receptor, OPRD (Homo sapiens, UniProt P41143); experiment: cAMP accumulation assay (Gi pathway), OPRD cell line; settings: for OPRD Gi Hill slope / Emax / pEC50: Table 1; for OPRD Gi Hill slope: cAMP concentration-response curve; for Emax / pEC50: cAMP; for Emax: normalized to reference agonist SNC80; for pEC50: read-out: OPRD Gi EC50
T2 construct: host or cells: HEK-293 overexpressing β-arrestin2 fused to a β-galactosidase fragment
Description: as §1
(§5) Cyclic Adenosine Monophosphate (cAMP) Accumulation
(§6) The agonist's efficacy to the G protein pathway was determined by changes in the cAMP level using the Cisbio cAMP detection kit. The cells used in cAMP assays are the same cell line as used in the β-arrestin 2 assays. The human opioid receptor activates the Gαi so intracellular cAMP accumulation is inhibited. Cisbio detection kit uses labeled cAMP and antibody. This system proceeds to compete with endogenous cAMP. If Gαi is activated, intracellular cAMP decreases. This assures that labeled-cAMP binds more with the antibody so that time-resolved fluorescence […].
as §4
(§7) The hill slope describes the steepness of the curve. […] We set the appropriate interval of hill slope as 0.8<n<1.5 which maintains the sigmoidal curve shape.

[3] = biological target: T1, human μ-opioid receptor, OPRM; experiment: Dominant assay: cAMP assay with/without irreversible antagonist β-FNA, OPRM cell line; settings: for maximal response on decreasing receptor population (dominant tendency), in words: OPRM cell lines, β-FNA
Description: (§8) To confirm the agonist's efficacy in a nature-like system, we need inactivation of target receptors on the cell membrane. Most cell lines have an abundant target receptor population (also known as spare receptors). Therefore, agonists have more opportunity to constitute agonist-receptor conformation. In this environment, not only full agonists but also partial agonists can reach maximal response.
(§9) If the partial agonist is selected as a full agonist, translational in vivo research will likely fail.
(§10) Non-competitive, irreversible antagonists can be applicable to judge the pharmacological character of agonists because they permanently decrease the receptor population in the cell line system. β-FNA or β-CNA is used as a non-competitive and irreversible antagonist for OPRM, OPRD. Before cAMP assay, cells were incubated with β-FNA or β-CNA for 40 minutes. Afterwards, the procedure is the same.
(§11) If a partial agonist compound acts as a full agonist due to receptor population (pseudo full agonist), it cannot sustain maximal response with reduced receptor population. However, a full agonist compound maintains their maximal response even though increased EC50.

[4] = biological target: T1, human μ-opioid receptor, OPRM; experiment: cAMP accumulation assay (Gi pathway), OPRM cell line; settings: Table 1; for pEC50 / Emax: cAMP; for OPRM Gi Hill slope: cAMP concentration-response curve; for Emax: normalized to reference agonist DAMGO
Description: as §1, §5, §6, §4, §7

[5] = biological target: T2, human δ-opioid receptor, OPRD; experiment: Dominant assay: cAMP assay with/without irreversible antagonist β-CNA, OPRD cell line; settings: for maximal response on decreasing receptor population (dominant tendency), in words: OPRD cell lines, β-CNA; for completeness of concentration-response curve, in words: OPRD system
Description: as §8, §9, §10, §11

[6] = biological target: T2, human δ-opioid receptor, OPRD; experiment: PathHunter β-arrestin 2 assay, OPRD cell line
Description: as §1, §2, §3, §4

[7] = Example 3, Tables 5-7, read-out: OPRM β-ARR2 Emax (%)
[8] = Table 1, normalized to reference agonist DAMGO, read-out: OPRM arrestin Emax, %
[9] = addition of β-FNA, Example 3, Tables 5-7, read-out: OPRM Gi β-FNA (+) EC50
[10] = addition of β-FNA, Example 3, Tables 5-7, read-out: OPRM Gi β-FNA (+) Emax (%)
[11] = addition of β-FNA, repeated dominant assay, Example 4, Tables 8-10, read-out: OPRM Gi β-FNA (+) EC50
[12] = addition of β-FNA, repeated dominant assay, Example 4, Tables 8-10, read-out: OPRM Gi β-FNA (+) Emax (%)
[13] = no addition of β-FNA, Example 3, Tables 5-7, read-out: OPRM Gi β-FNA (−) EC50
[14] = no addition of β-FNA, Example 3, Tables 5-7, read-out: OPRM Gi β-FNA (−) Emax (%)
[15] = no addition of β-FNA, repeated dominant assay, Example 4, Tables 8-10, read-out: OPRM Gi β-FNA (−) EC50
[16] = no addition of β-FNA, repeated dominant assay, Example 4, Tables 8-10, read-out: OPRM Gi β-FNA (−) Emax (%)
[17] = addition of β-CNA, Example 3, Tables 5-7, read-out: OPRD Gi β-CNA (+) EC50
[18] = addition of β-CNA, Example 3, Tables 5-7, read-out: OPRD Gi β-CNA (+) Emax (%)
[19] = addition of β-CNA, repeated dominant assay, Example 4, Tables 8-10, read-out: OPRD Gi β-CNA (+) EC50
[20] = addition of β-CNA, repeated dominant assay, Example 4, Tables 8-10, read-out: OPRD Gi β-CNA (+) Emax (%)
[21] = no addition of β-CNA, Example 3, Tables 5-7, read-out: OPRD Gi β-CNA (−) EC50
[22] = no addition of β-CNA, Example 3, Tables 5-7, read-out: OPRD Gi β-CNA (−) Emax (%)
[23] = no addition of β-CNA, repeated dominant assay, Example 4, Tables 8-10, read-out: OPRD Gi β-CNA (−) EC50
[24] = no addition of β-CNA, repeated dominant assay, Example 4, Tables 8-10, read-out: OPRD Gi β-CNA (−) Emax (%)
[25] = Example 3, Tables 5-7, read-out: OPRD β-ARR2 Emax (%)
[26] = Table 1, normalized to reference agonist SNC80, read-out: OPRD arrestin Emax, %

T1 sequence (P35372 whole entry, the tested form may be a part): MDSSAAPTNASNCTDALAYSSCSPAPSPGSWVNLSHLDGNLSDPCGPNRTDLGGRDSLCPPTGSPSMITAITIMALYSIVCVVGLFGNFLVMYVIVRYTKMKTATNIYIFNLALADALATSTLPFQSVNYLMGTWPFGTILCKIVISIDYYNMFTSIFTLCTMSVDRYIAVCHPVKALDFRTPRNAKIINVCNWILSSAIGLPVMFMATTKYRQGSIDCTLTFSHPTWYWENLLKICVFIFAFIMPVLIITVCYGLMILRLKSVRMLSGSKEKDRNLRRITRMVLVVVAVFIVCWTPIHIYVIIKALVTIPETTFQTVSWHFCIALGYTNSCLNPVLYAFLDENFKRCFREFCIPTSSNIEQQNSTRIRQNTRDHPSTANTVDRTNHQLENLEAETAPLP
T2 sequence (P41143 whole entry, the tested form may be a part): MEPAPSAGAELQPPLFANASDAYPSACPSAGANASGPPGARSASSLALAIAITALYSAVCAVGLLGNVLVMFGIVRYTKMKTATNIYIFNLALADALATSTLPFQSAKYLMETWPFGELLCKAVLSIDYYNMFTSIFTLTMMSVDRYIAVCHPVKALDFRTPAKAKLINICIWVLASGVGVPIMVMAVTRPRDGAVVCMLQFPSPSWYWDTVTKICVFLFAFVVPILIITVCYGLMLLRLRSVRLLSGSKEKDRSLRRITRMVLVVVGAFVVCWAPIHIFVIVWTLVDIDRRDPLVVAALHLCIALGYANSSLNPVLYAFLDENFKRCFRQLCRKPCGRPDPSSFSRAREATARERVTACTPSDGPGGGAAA

SMILES	Emax [1, 7] [%]	Emax [1, 8] [%]	OPRD Gi Hill slope [2]	Emax [2] [%]	pEC50 [2]	maximal response on decreasing receptor population (dominant tendency), in words [3]	pEC50 [3, 9]	Emax [3, 10] [%]	pEC50 [3, 11]	Emax [3, 12] [%]	pEC50 [3, 13]	Emax [3, 14] [%]	pEC50 [3, 15]	Emax [3, 16] [%]	pEC50 [4]	OPRM Gi Hill slope [4]	Emax [4] [%]	completeness of concentration-response curve, in words [5]	pEC50 [5, 17]	pEC50 [5, 21]	further results
CN1CCc2cc(C(CNC(=O)Nc3ccc(F)cc3)N(C)C)ccc21 (racemic) [Compound 2, 3-[2-(dimethylamino)-2-(1-methyl-2,3-dihydro-1H-indol-5-yl)ethyl]-1-(4-fluorophenyl)urea]	15.3	15.3	1.44	92.4	5.98	showed a similar pattern as compared to DAMGO; also recorded: resistant to decreasing spare receptors; also recorded: resistant to decreasing spare receptor-induced tendency	5.93	80.1	5.38	77.4	6.17	98.6	5.77	103	5.73	0.94	109	produced a full concentration-response curve	5.62	8.30	maximal response on decreasing receptor population (dominant tendency), in words [5]: resistant to decreasing spare receptors; also recorded: resistant to decreasing spare receptor-induced tendency; Emax [5, 18]: 78.5%; pEC50 [5, 19]: 5.21; Emax [5, 20]: 70.2%; Emax [5, 22]: 98.9%; pEC50 [5, 23]: 5.78; Emax [5, 24]: 100%; Emax [6, 25]: 4.66%; Emax [6, 26]: 4.66%
Cc1ccccc1NC(=O)NCC(c1ccc2c(c1)CCO2)N(C)C (racemic) [Compound 3, 3-[2-(2,3-dihydro-1-benzofuran-5-yl)-2-(dimethylamino)ethyl]-1-(2-methylphenyl)urea]	12.2	12.2	1.16	94.6	5.08	showed a similar pattern as compared to DAMGO	5.80	91.3	7.64	75.5	6.18	97.9	7.44	102	5.89	1.48	112	curve was cut due to the X-axis limitation	4.98	5.36	Emax [5, 18]: 50.9%; pEC50 [5, 19]: 5.35; Emax [5, 20]: 48.2%; Emax [5, 22]: 106%; pEC50 [5, 23]: 5.44; Emax [5, 24]: 100%; Emax [6, 25]: 1.99%; Emax [6, 26]: 1.99%
C[C@@H](Cc1ccsc1)NC(=O)NC[C@H](Cc1ccc(O)cc1)N(C)C [PZM21, reference compound]			0.83		6.64													produced a full concentration-response curve	6.54	6.93	Gi pathway agonism, in words ([2]; OPRD): OPRM, OPRD dual biased agonist; maximal response on decreasing receptor population (dominant tendency), in words [5]: more susceptible to decreasing receptor populations than SNC80; also recorded: less resistance to decreasing spare receptors than SNC80; OPRD Gi β-CNA (+) Emax (%) ([5]; addition of β-CNA, Example 3, Tables 5-7): 58.77%; OPRD Gi β-CNA (−) Emax (%) ([5]; no addition of β-CNA, Example 3, Tables 5-7): 95.97%; OPRD β-ARR2 Emax (%) ([6]; Example 3, Tables 5-7): 3.41%; OPRD arrestin Emax, % ([6]; Table 1, normalized to reference agonist SNC80): 3.41%
